Experiment: In vitro tests of lamellar structure formation
Type: physicochemical
Details: RMT associated to palmitic acid

Q: With “ricinoleyl monomaleate triglyceride [RMT]” as the substance, how does the structure formed read?
A: form a lamellar structure very similar to the lamellar gel structure that is naturally present in healthy skins
